Experimental data published in PubChem BioAssay (NCI).
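How tested: cells in 96-well plates exposed to compound for 48 hours at five concentrations. Here, GI50 denotes the concentration required for 50% inhibition of growth. TGI: total growth inhibition.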 *1 amine or outer side, *2 acyl side, *3 side chain or, on linkers, in order; H or OH if unused. Where a SMILES comes first, the peptide text is derived from it. Bridges are numbered along the chain shown (N, C = ends). Roman numbers before positions name the chains, in order. [ ]: non-standard residue; d: D form. Actinocin(9to1) = Cc1c2oc3c(C)ccc(C(=O)[*:1])c3nc-2c(C(=O)[*:2])c(N)c1=O; NMeV = CN[CH](C(=O)O)C(C)C; Sar = CNCC(=O)O

Experiments:
Experiment in all cases: NCI anticancer screen, dose series, 48 h
[1] = system: MDA-MB-231 breast
[2] = system: PC-3 prostate
[3] = system: SK-OV-3 ovarian
[4] = system: T-47D breast
[5] = system: M14 melanoma
[6] = system: SNB-75 CNS
[7] = system: EKVX NSCLC
[8] = system: CAKI-1 renal
[9] = system: HCT-15 colon
[10] = system: K-562 leukemia

| Structure (SMILES) | TGI [1] [µM] | TGI [2] [µM] | TGI [3] [µM] | TGI [4] [µM] | TGI [5] [µM] | TGI [6] [µM] | TGI [7] [µM] | TGI [8] [µM] | TGI [9] [µM] | TGI [10] [µM] | GI50 [4] [µM] | GI50 [7] [µM] | GI50 [10] [µM] |
| --- | --- | --- | --- | --- | --- | --- | --- | --- | --- | --- | --- | --- | --- |
| CCOC(=O)COC1=Nc2cc(OC)c(OC)c3nc(Cl)cc(c23)C1=O | 3.28 | 3.45 | 24.1 | 24 | 3.08 | 5.87 | 1.83 | 3.58 | 6.16 | 7.2 |  |  |  |
| CCn1c(SCc2nnc(Nc3ccccc3)s2)nc2ccccc2c1=O | 10.2 | > 67.4 | 7.66 | 27 | > 61.4 | 14.2 | 17.3 | 9.04 | > 100 | > 73.2 |  |  |  |
| Cc1sc2nc3n(sc4nc5sc(C)c(C)c5c(=O)n43)c(=O)c2c1C | > 100 | > 100 | > 100 | 12 | > 100 | 43.4 | 98.4 | > 100 | > 100 | > 100 |  |  |  |
| CCC1(O)CC(O)c2c(O)c3c(c(O)c2C1C(=O)OC)C(=O)c1cccc(O)c1C3=O (stereo not drawn) | 13 | 13 | > 36.1 | 32.8 | 14.1 | 18.5 | 6.65 | 15.3 | 21.1 | > 21.8 |  |  |  |
| CC(=O)NCC1OC2COC(c3ccccc3)OC2C2N=C(c3ccccc3)OC12 (stereo not drawn) | > 100 | > 100 | > 100 | 57.7 | > 100 | > 100 | > 100 | > 100 | > 100 | > 100 |  |  |  |
| C=C(C)[C@@H]1CC[C@]2(C(=O)OC3OC(COC4OC(CO)C(OC5OC(C)C(O)C(O)C5O)C(O)C4O)C(O)C(O)C3O)CC[C@]3(C)[C@H](CC[C@@H]4[C@@]5(C)CC[C@H](O)[C@@](C)(CO)[C@@H]5CC[C@]43C)[C@@H]12 (stereo partly drawn) | > 9.18 | > 8.45 | > 8.62 | > 10 | > 10 | > 10 | > 10 | > 9.66 | > 9.68 | > 6.45 |  |  |  |
| C#Cc1cccc(Nc2ncnc3cc(OCCOC)c(OCCOC)cc23)c1 | 44.2 | > 100 | 5.2 | > 100 | > 100 | 46.7 | > 93.7 | 10 | > 100 | > 100 | 4.17 | 0.301 | 27.7 |
| O=C1c2ccccc2C2(c3ccc(Cl)cc3)N[C@@H]3CCCC[C@@H]3N12 (stereo partly drawn) | > 100 | > 100 | > 100 | > 100 | > 100 | > 100 | > 100 | > 100 | > 100 | > 100 |  |  |  |
| Cc1ccc(S(=O)(=O)CC2CCCn3c2c(C#N)c2ccccc23)cc1 (stereo not drawn) | > 100 | > 100 | > 100 | > 100 | > 100 | > 100 | > 100 | > 100 | > 100 | > 100 |  |  |  |
| CC(C)CCCC(C)[C@H]1CC[C@H]2NCCCC[C@]12C (stereo partly drawn) | 9.36 | 10.4 | 28.4 | 8.93 | 4.29 | 16 | 5.23 | 22.8 | 6.91 | 6.61 |  |  |  |
| O=C(O)Cn1ncn(NC(=O)Cc2ccccc2)c1=S | > 10 | > 10 | > 10 | > 10 | > 10 | > 10 | > 10 | > 10 | > 10 | > 10 |  |  |  |
| CCOC(=O)c1nc2ccccc2nc1Nc1ccc(F)cc1 | 24.2 | > 100 | 37.7 | > 86.1 | > 100 | 18.5 | > 68.7 | > 100 | > 100 | > 100 |  |  |  |
| CN1C(=O)C(CCO)(C(C)(C)C)c2ccccc21 (stereo not drawn) | > 100 | > 100 | > 100 | > 100 | > 100 | > 100 | > 100 | > 100 | > 100 | > 100 |  |  |  |
| C=C1CC(Cn2cc(Br)c(=O)[nH]c2=O)(c2ccc(Br)cc2)OC1=O (stereo not drawn) | 17.4 | 12.8 | 24.6 | 5.04 | 3.22 | 26.7 | 39.7 | 7.13 | 3.85 | > 100 |  |  |  |
| Cc1cn(C2CC(SCCO)C(CO)O2)c(=O)[nH]c1=O (stereo not drawn) | > 100 | > 100 | > 100 | > 100 | > 100 | > 100 | > 100 | > 100 | > 100 | > 100 |  |  |  |
| Cn1c(=O)[nH]n(-c2ccc3ccccc3c2)c1=O | > 100 | > 100 | > 100 | > 100 | > 100 | > 100 | > 100 | > 100 | > 100 | > 100 |  |  |  |
| O=C1/C(=C(/Br)I)c2ccccc2-c2ccccc21 | 19.2 | 23.7 | 29.8 | > 80.4 | 27.6 | 29.7 | 32.6 | 16.9 | 16.6 | 7.24 |  |  |  |
| CCn1c(O)c(C(=O)NC(C)c2ccc([N+](=O)[O-])cc2)c(=O)n(CC)c1=S (stereo not drawn) | 10.8 | 10.2 | 7.38 | 14.2 | 6.04 | 5.34 | 12.7 | 10.1 | 10.7 | 3.6 |  |  |  |
| O=C(c1ccccc1)c1ccc2nc(-c3c(Cl)c(Cl)c(Cl)c(Cl)c3C(=O)Nc3ccco3)[nH]c2c1 | > 100 | > 100 | > 100 | > 100 | > 100 | > 100 | > 100 | > 100 | > 100 | > 100 |  |  |  |
| c1ccc2c(c1)ccc1nc(-c3ccc4c(c3)OCO4)c3c(c12)CCC3 | > 100 | > 100 | > 100 | > 100 | > 100 | > 100 | > 100 | > 100 | > 100 | > 100 |  |  |  |
| Cc1c2oc3c(C)ccc(C(=O)NC4C(=O)NC(Cc5ccc(O)cc5)C(=O)N5CCCC5C(=O)N(C)CC(=O)N(C)C(C(C)C)C(=O)OC4C)c3nc-2c(C(=O)NC2C(=O)NC(Cc3ccc(O)cc3)C(=O)N3CCCC3C(=O)N(C)CC(=O)N(C)C(C(C)C)C(=O)OC2C)c(N)c1=O (stereo not drawn) (I: TYP[Sar][NMeV] / II: TYP[Sar][NMeV]; ester I:1-I:C, II:1-II:C; linker I:N-II:N via Actinocin(9to1); configuration not given here) | > 66.9 | > 100 | > 100 | > 79.9 | 28.9 | 20.3 | > 100 | 27.5 | > 100 | > 100 |  |  |  |
| COCCN(C(=O)c1ccccc1)C1CCC(=O)c2[nH]c3ccccc3c21 (stereo not drawn) | 15.9 | 12.8 | 29 | 34.4 | 20.4 | 16.5 | 25.7 | 10.9 | 31.9 | 18.3 |  |  |  |
| CC(=O)NC1C(OCc2ccccc2)OC(CO)C(O)C1OCC(=O)N[C@@H](C)C(=O)N[C@H](CCC(=O)NCCCCNc1c2ccccc2nc2cccc([N+](=O)[O-])c12)C(N)=O (stereo partly drawn) | 9.56 | 9.44 | > 71.8 | 9.51 | > 22.2 | 4.69 | 8.97 | > 23.2 | 14.7 | > 100 |  |  |  |
| CC(=O)Nc1nc(C)c(S(=O)(=O)NC(=O)N2c3ccccc3CCc3ccccc32)s1 | > 100 | > 100 | > 100 | > 100 | > 100 | > 100 | > 100 | > 100 | > 100 | > 100 |  |  |  |
| CC1Cc2c(cc(N)nc2Br)NC1=O (stereo not drawn) | > 100 | > 100 | > 100 | > 100 | > 100 | > 100 | > 100 | > 100 | > 100 | > 100 |  |  |  |
